# From patent publication US7189519B2, “Bead-based detection of ligand-GPCR-G protein complexes” (STC.UNM, priority 1998, dated 2007)
# pEC50: −log10 of the molar value. Residues, ends and D or L forms follow the SMILES beside them. *: point of attachment. For = O=C*
# Test system: FPR-GFP with Gαβγ on DCNi beads (LR^FG ternary complex)
# Test: Standard LRG assembly assay with FPR-GFP (R^F) on G protein beads, flow cytometry
# Assay type: biochemical, human
# Settings: for pEC50: standard assembly with 30 nM R^F, three experiments, read-out: EC50 for LRG formation
# Method: Standard LRG Assembly Assay. […] Each mixture was mixed by pipetting to ensure a uniform starting suspension of the beads in 96 V-well plates (Costar), and then mixed at low speed on a vortex mixer at 7° for two hours. The 10 μl assays were individually brought to 200 μl with 0.1% dodecyl maltoside in buffer A in 12×75 mm tubes for flow cytometric measurement of fluorescence of the beads. LRG assembly was defined as the difference between fluorescence without GTPγS and that with GTPγS. All determinations were done in duplicate.
pEC50,SMILES,"calculated maximal assembly, of the LRG assembly of the longer peptides (near the limit of solubility of fML)"
7.57,CSCC[C@H](NC=O)C(=O)N[C@@H](CC(C)C)C(=O)N[C@@H](Cc1ccccc1)C(=O)N[C@@H](Cc1ccccc1)C(=O)O [fMLFF] (For-MLFF-OH; C-terminus assumed),–
5.28,CSCC[C@H](NC=O)C(=O)N[C@@H](CC(C)C)C(=O)O [fML] (For-Met-Leu-OH; C-terminus assumed),78+/−3%
